We go through seven compounds from patent US10364238B2, “N-((het) arylmethyl)-heteroaryl-carboxamides compounds as plasma kallikrein inhibitors” (KALVISTA PHARMACEUTICALS LIMITED, priority 2014, dated 2019).

Structures are written as SMILES. Some results are limits rather than exact numbers.

The target in one series is Human plasma kallikrein (Homo sapiens (Human), UniProt P03952). Nature of the series: Determination of the IC50 for plasma kallikrein. To be noted: 25° C., fluorogenic substrate H-DPro-Phe-Arg-AFC; read-out: IC50 (human PKaI). It is filed as biochemical. The method, then:
Determination of the IC50 for Plasma Kallikrein
Human plasma kallikrein (Protogen) was incubated at 25° C. with the fluorogenic substrate H-DPro-Phe-Arg-AFC and various concentrations of the test compound. Residual enzyme activity (initial rate of reaction) was determined by measuring the change in […] at 410 nm and the IC50 value for the test compound was determined.

Series [1] is described as follows: Pharmacokinetics following a single oral dose in rats. The series is classed as in vivo. The settings on record: rat, nominal 10 mg/kg, male Sprague-Dawley rats, plasma. The method, then:
Pharmacokinetic studies of the compounds in Table 15 were performed to assess the pharmacokinetics following a single oral dose in male Sprague-Dawley rats. Two rats were given a single po dose of 5 mL/kg of a nominal 2 mg/mL (10 mg/kg) composition of test compound in vehicle. Following dosing, blood samples were collected over a period of 24 hours. Sample times were 5, 15 and 30 minutes then 1, 2, 4, 6, 8 and 12 hours. Following collection, blood samples were centrifuged and the plasma fraction analysed for concentration of test compound by LCMS.

The target of the next series is Human FXIa (Homo sapiens (Human), UniProt P03951). Put plainly: Determination of the % inhibition for FXIa. It is filed as biochemical. The settings on record: 40 μM test compound, 25° C., substrate Z-Gly-Pro-Arg-AFC. On the procedure:
Determination of the % Inhibition for FXIa
Human FXIa (Enzyme Research Laboratories) was incubated at 25° C. with the fluorogenic substrate Z-Gly-Pro-Arg-AFC and 40 μM of the test compound. Residual enzyme activity (initial rate of reaction) was determined by measuring the change in […].

Another series deals with Human KLK1 (Homo sapiens (Human), UniProt P06870). Nature of the series: Determination of the IC50 for KLK1. It is filed as biochemical. To be noted: 25° C., fluorogenic substrate H-DVal-Leu-Arg-AFC. On the procedure:
Determination of the IC50 for KLK1
Human KLK1 (Callbiochem) was incubated at 25° C. with the fluorogenic substrate H-DVal-Leu-Arg-AFC and various concentrations of the test compound. Residual enzyme activity (initial rate of reaction) was determined by measuring the change in […] at 410 nm and the IC50 value for the test compound was determined.

The conditions of series [2]: in vivo; cited from earlier work.
A further series has as its system diabetic rats. To be noted: cited from earlier work.

Sequence of Human KLK1 (P06870 25-262): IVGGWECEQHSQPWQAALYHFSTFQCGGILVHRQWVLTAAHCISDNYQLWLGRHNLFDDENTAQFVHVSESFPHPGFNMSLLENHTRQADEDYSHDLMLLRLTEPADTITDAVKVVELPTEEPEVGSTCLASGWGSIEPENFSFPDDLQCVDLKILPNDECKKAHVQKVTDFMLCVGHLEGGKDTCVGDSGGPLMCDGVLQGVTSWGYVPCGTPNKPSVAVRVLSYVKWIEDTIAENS
Sequence of Human FXIa (P03951 388-625): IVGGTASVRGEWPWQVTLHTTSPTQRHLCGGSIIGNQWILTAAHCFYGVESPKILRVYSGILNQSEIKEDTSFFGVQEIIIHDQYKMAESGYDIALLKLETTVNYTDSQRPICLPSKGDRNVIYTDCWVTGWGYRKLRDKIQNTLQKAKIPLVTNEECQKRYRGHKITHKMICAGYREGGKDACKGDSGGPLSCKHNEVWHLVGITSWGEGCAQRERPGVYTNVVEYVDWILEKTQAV
Sequence of Human FXIa (P03951 19-387 partner): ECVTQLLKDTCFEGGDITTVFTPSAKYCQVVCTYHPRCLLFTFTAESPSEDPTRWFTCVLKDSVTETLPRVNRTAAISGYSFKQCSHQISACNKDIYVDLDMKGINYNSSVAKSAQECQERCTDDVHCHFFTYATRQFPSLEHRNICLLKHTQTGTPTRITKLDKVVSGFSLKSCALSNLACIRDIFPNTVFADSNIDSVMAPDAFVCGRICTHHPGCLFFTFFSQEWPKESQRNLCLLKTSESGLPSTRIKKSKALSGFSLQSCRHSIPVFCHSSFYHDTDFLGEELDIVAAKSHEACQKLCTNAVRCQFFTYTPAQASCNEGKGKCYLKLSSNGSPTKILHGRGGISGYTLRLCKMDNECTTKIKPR
Sequence of Human plasma kallikrein (P03952 391-638): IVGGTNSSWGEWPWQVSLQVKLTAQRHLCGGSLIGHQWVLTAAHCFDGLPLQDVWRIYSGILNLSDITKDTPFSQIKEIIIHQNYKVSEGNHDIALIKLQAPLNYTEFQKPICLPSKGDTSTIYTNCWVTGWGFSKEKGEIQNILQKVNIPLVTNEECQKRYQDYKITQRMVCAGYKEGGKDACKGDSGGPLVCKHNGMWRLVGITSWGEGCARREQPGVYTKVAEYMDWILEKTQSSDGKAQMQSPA
Sequence of Human plasma kallikrein (P03952 20-390 partner): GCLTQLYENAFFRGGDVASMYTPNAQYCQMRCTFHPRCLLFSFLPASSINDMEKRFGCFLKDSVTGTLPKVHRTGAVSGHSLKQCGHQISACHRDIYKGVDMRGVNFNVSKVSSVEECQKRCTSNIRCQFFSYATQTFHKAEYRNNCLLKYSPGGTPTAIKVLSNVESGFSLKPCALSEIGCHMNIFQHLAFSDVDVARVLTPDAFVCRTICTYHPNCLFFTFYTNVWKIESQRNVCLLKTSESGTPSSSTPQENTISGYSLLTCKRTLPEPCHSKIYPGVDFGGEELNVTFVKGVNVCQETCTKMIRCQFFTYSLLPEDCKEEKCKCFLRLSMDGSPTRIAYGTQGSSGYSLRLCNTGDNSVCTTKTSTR

For `COCc1nn(Cc2ccc(Cn3ccccc3=O)cc2)cc1C(=O)NCc1c(C#N)ccc(OC)c1F` [Example 77, N-[(6-cyano-2-fluoro-3-methoxyphenyl)methyl]-3-(methoxymethyl)-1-({4-[(2-oxopyridin-1-yl)methyl]phenyl}methyl)pyrazole-4-carboxamide], the IC50 on Human plasma kallikrein stood at 0.6 nM. For the same compound, in series [1], the concentration peaked (Cmax) at 397 ng/mL and the Tmax was 30 min. The inhibition at 40 µM against Human FXIa came out at 28%.
For `COCc1nn(Cc2ccc(Cn3ccccc3=O)cc2)cc1C(=O)NCc1c(F)ccc(OC)c1F` [Example 66, N-[(2,6-difluoro-3-methoxyphenyl)methyl]-3-(methoxymethyl)-1-({4-[(2-oxopyridin-1-yl)methyl]phenyl}methyl)pyrazole-4-carboxamide], on Human plasma kallikrein, the IC50 was 4.6 nM. Besides, the IC50 against Human KLK1 is over 10000 nM. In series [1], the Cmax turned out to be 2890 ng/mL and the Tmax was 60 min. Testing at 40 µM against Human FXIa gave an inhibition of 4%.
In the case of `N=C(N)c1ccc(CNC(=O)c2cnn(Cc3ccccc3)c2)cc1` [ASP-440], the oral availability result in series [2] was “poor oral availability”. In addition, in the series on diabetic rats, the “effect on retinal vascular permeability and retinal blood flow abnormalities” value is “ameliorated both retinal vascular permeability and retinal blood flow abnormalities”.
On to `O=C(NCc1c(F)cccc1C(F)(F)F)c1cn(Cc2ccc(Cn3ccccc3=O)cc2)nc1C(F)(F)F` [Example 51, N-{[2-fluoro-6-(trifluoromethyl)phenyl]methyl}-1-({4-[(2-oxopyridin-1-yl)methyl]phenyl}methyl)-3-(trifluoromethyl)pyrazole-4-carboxamide], for which the values for the IC50 at Human plasma kallikrein and against Human KLK1 were 48.9 nM and over 40000 nM, respectively. For the same compound, the Cmax in series [1] was 101 ng/mL. Moreover, the Tmax in series [1] was 15 min.
For the compound `COCc1nn(Cc2ccc(Cn3ccccc3=O)cc2)cc1C(=O)NCc1cccc(OC)c1F` [Example 53, N-[(2-fluoro-3-methoxyphenyl)methyl]-3-(methoxymethyl)-1-({4-[(2-oxopyridin-1-yl)methyl]phenyl}methyl)pyrazole-4-carboxamide], the IC50 at Human plasma kallikrein turned out to be 20.2 nM. The same compound gave an IC50 against Human KLK1 of over 10000 nM. In series [1], the peak level (Cmax) was 1030 ng/mL and the Tmax is 15 min.
Consider `COc1cccc(CNC(=O)c2cn(Cc3ccc(Cn4ccccc4=O)cc3)nc2N)c1F` [Example 2, 3-Amino-1-[4-(2-oxo-2H-pyridin-1-ylmethyl)-benzyl]-1H-pyrazole-4-carboxylic acid 2-fluoro-3-methoxy-benzylamide], for which the IC50 at Human plasma kallikrein was 8.7 nM. At Human KLK1, the IC50 was over 10000 nM. Further, in series [1], the highest level (Cmax) was 351 ng/mL and the Tmax is 60 min. Further, 40 µM produced 8% inhibition at Human FXIa.
For `COCc1nn(Cc2ccc(Cn3ccccc3=O)cc2)cc1C(=O)NCc1nccc(OC)c1F` [Example 41, N-[(3-fluoro-4-methoxypyridin-2-yl)methyl]-3-(methoxymethyl)-1-({4-[(2-oxopyridin-1-yl)methyl]phenyl}methyl)pyrazole-4-carboxamide], the IC50 against Human KLK1 was over 40000 nM. Moreover, in series [1], the Cmax stood at 1530 ng/mL and the Tmax was 180 min. This compound also showed an inhibition at 40 µM against Human FXIa of 0%.
